Reference: patent US6214860A, “Synergistic antitumor composition containing a naphthalensulphonic acid derivative” (Pharmacia & Upjohn S.p.A., priority 1997, dated 2001)
Several values for one entry are separate records, joined by “and”; a condition that tells them apart may be missing. Equal entries are not always repeated. Structures can show the parent of a compound that is named as a salt. Where two headings read alike, the source gives them in different places.

Experiments:
[1] = days 1, 4, 7 and 11
Experimental: Mice C57BL/6 were implanted with M5076 murine reticulosarcoma cells. PNU 145156E was administered ip 2 h prior to cytotoxic drugs administered iv starting treatment 24 h after tumor implant. Treatments were performed at days 1, 4, 7 and 11.
The toxicological evaluation was performed in terms of body weight loss and spleen and liver reduction.

[2] = test system: M5076 murine reticulosarcoma cells; test: In vivo antitumor activity in mice implanted with M5076 tumor cells; parameters: species or system Mice C57BL/6; settings: days 1, 4, 7 and 11; for A.U.C. % inhib. (inhibition of tumor growth): one week after last treatment; for TGD (tumor growth delay): time to reach one gram
Experimental: (§1) The combinations were assayed in vitro on M5076 murine reticulosarcoma cells and in vivo on the same tumor cells implanted intramuscularly.
The antitumor activity was calculated in terms of:
% AUC: inhibition of tumor growth
T/C %: percentage of median increase in survival time
The A.U.C. (area under the curve) of the tumor growth was calculated by using the trapezoidal method, and is referred to the measurement of tumor growth performed one week after the last treatment. The percentage of inhibition (% A.U.C.) was calculated using the following formula: [formula]
The percentage of increase in survival time (T/C% ) was calculated using the following formula: [formula]
Mice were monitored according to guidelines and sacrificed when tumor weight exceeded 10% body weight. Tumor growth delay (TGD) is the time, in days, to reach one gram of tumor weight in treated animals as compared to control animals.
Evaluation of statistical significance was performed as follows: Student's Test for cytotoxic activity, Two-Way Anova for increase in survival time (T/C %) with combined treatment in comparison to the increase exerted separately by the two drugs, Tukey Test for tumor weight reduction (AUC % inhibition) with combined treatment in comparison to the reduction exerted separately by the two drugs.
The criterion for statistical significance was the 0.01 level ( )

[3] = test system: M5076 murine reticulosarcoma cells; test: In vitro antiproliferative activity (% cell growth vs untreated control); assay type: cell-based
Experimental: as §1

[4] = PNU 145156E alone 100 mg/kg ip, single-agent arm of each of Tables 2-6
[5] = VP-16 15 mg/kg iv, combination: + PNU 145156E 100 mg/kg ip 2 h prior

Row | SMILES | Toxic/total mice [1, 4] | T/C % (median increase in survival time) [2, 4] | Tumor weight [2, 4] | A.U.C. % inhib. (inhibition of tumor growth) [2, 4] | TGD (tumor growth delay) [2, 4] | activity at 50 µg/mL ([3]; Mus musculus, M5076, 72 h, PNU 145156E 50000 ng/ml alone (cytotoxic 0 ng/ml), 72 h, 37° C., read-out: % cell growth ± S.E.) [%] | % cell growth ± S.E. ([3]; PNU 145156E 50000 ng/ml alone (cytotoxic 0 ng/ml), 72 h, 37° C., 4320 min) | Toxic/total mice [1, 5] | T/C % (median increase in survival time) [2, 5] [%] | Tumor weight [2, 5] [gr] | A.U.C. % inhib. (inhibition of tumor growth) [2, 5] [%] | TGD (tumor growth delay) [2, 5] [days] | activity at 0.004 µg/mL ([3]; Mus musculus, M5076, cytotoxic 4 ng/ml, PNU 145156E 0 ng/ml, 72 h, 37° C., read-out: % cell growth ± S.E.) [%] | activity at 0.02 µg/mL ([3]; Mus musculus, M5076, cytotoxic 20 ng/ml, PNU 145156E 0 ng/ml, 72 h, 37° C., read-out: % cell growth ± S.E.) [%] | activity at 0.1 µg/mL ([3]; Mus musculus, M5076, cytotoxic 100 ng/ml, PNU 145156E 0 ng/ml, 72 h, 37° C., read-out: % cell growth ± S.E.) [%] | % cell growth ± S.E. ([3]; cytotoxic 4 ng/ml + PNU 145156E 50000 ng/ml, 72 h, 37° C.) [%] | % cell growth ± S.E. ([3]; cytotoxic 20 ng/ml + PNU 145156E 50000 ng/ml, 72 h, 37° C.) [%] | % cell growth ± S.E. ([3]; cytotoxic 100 ng/ml + PNU 145156E 50000 ng/ml, 72 h, 37° C.) [%] | antiproliferative activity in the presence of PNU 145156E ([3]; in words, PNU 145156E 50000 ng/ml vs 0 ng/ml)
1 | Cn1cc(NC(=O)Nc2cc(C(=O)Nc3cc(C(=O)Nc4ccc5cc(S(=O)(=O)O)cc(S(=O)(=O)O)c5c4)n(C)c3)n(C)c2)cc1C(=O)Nc1cc(C(=O)Nc2ccc3cc(S(=O)(=O)O)cc(S(=O)(=O)O)c3c2)n(C)c1 [PNU 145156E, 7'-(carbonyl-bis(imino-N-methyl-4,2-pyrrolecarbonyl-imino(N-methyl-4,2-pyrrole)carbonylimino))bis(1,3-naphtalen-disulfonic acid)tetrasodium salt] | 0/10 and 0/9 and 0/8 | 121% and 141% and 148% | 1.45 ± 0.7 gr and 2.63 ± 0.8 gr and 1.4 ± 0.7 gr and 1.7 ± 0.65 gr | 88% and 85% and 90% and 75% | 9 days and 10 days and 16 days | 85 | 88 ± 3% and 92 ± 5% and 92 ± 14% and 89 ± 19% | – | – | – | – | – | – | – | – | – | – | – | –
2 | COc1cc([C@@H]2c3cc4c(cc3[C@@H](O[C@@H]3O[C@@H]5CO[C@@H](C)O[C@H]5[C@H](O)[C@H]3O)[C@H]3COC(=O)[C@H]23)OCO4)cc(OC)c1O [VP-16, etoposide] | – | – | – | – | – | – | – | 0/9 | 130 | 2.86 ± 0.8 | 90 | 12 | 96 ± 8 | 77 ± 5 | 15 ± 7 | 91 ± 2 | 66 ± 8 | 9 ± 4 | unchanged in the presence of PNU 145156E
